≈ marks a conversion by molar mass, not a printed value. Like-named read-outs stand apart in the source and are kept apart here. Values belong to the compound of their own block, whether it stands above or below them.
Tests used:
[1] = Metabolite identification and relative exposure in rat plasma and urine (UHPLC-QTOF MS/MS); format: in vivo, Sprague Dawley rats; details: for Source P (detected in plasma): rat plasma after single oral dose of 50 mg/kg R14; for Source U (detected in urine): rat urine 0-24 h after single oral dose of 50 mg/kg R14; for Cumulative excretion in 24 h urine as fraction of total amount of R14 and its metabolites: rat urine 0-24 h, peak area x urine volume
Protocol: (§1) For the oral pharmacokinetics of R14, rats were fasted overnight and 4 h post-administration of 50 mg/kg oral dose of R14, with free access to water in metabolic cages. Serial blood samples (0.15 mL each) were collected from the cannulated jugular vein into heparin-coating tubes before dosing and at 5 min, 15 min, 30 min, 45 min, 1 h, 2 h, 3 h, 4 h, 6 h, 8 h, 10 h, and 24 h time points post dose. Plasma samples were separated immediately by centrifugation of the blood samples at 13,000 rpm for 3 min. For R14 quantification, 10 μL plasma aliquots were mixed with 30 μL of a stabilizing derivatization solution (0.1 M citric acid and 0.1 M sodium sulfite) and stored at −80 °C for analysis by UHPLC-MS/MS. For metabolite identification, 20 μL plasma aliquots were mixed with 80 μL acetonitrile containing 0.5% formic acid and stored at −80 °C for UHPLC-QTOF MS/MS analysis. Urine samples were collected over 0–24 h and stored at −80 °C.
Twenty microliters of urine were mixed with 80 µL of methanol containing 0.5% formic acid, vortexed for 2 min, and centrifuged for 20 min. An 80 µL Aliquot of the supernatant was transferred to a sample vial for metabolite identification using UHPLC-QTOF MS/MS.
(§2) Samples from in vivo pharmacokinetic studies, in vitro blood stability studies, and in vitro hepatic microsome studies were pretreated at the time of collection. Before analysis, the samples were thawed at room temperature, vortexed for 2 min, and centrifuged at 14,000 rpm for 20 min. An 80 µL aliquot of the supernatant was transferred to a sample vial for UHPLC-QTOF MS/MS analysis.
Metabolite identification was performed on a UHPLC-X500B QTOF MS/MS (SCIEX, Framingham, MA, USA) equipped with a Synergi Fusion-RP column (4 µm, 150 × 2 mm, 80 Å, Phenomenex, Torrance, CA, USA). The mobile phases were water with 0.1% formic acid (A) and methanol with 0.1% formic acid (B), delivered at a flow rate of 0.4 mL/min. The autosampler and oven temperatures were set at 10 °C and 30 °C, respectively. The running time was 30 min. The gradient elution was as follows: 10% B for 0.5 min; increased to 70% over 20 min; then to 95% over 2 min; held at 95% for 5 min; returned to 10% in 0.5 min; and equilibrated for 2 min.
The QTOF MS/MS was operated In positive ion mode. Data were acquired in Information-dependent-acquisition (IDA) mode, starting with a TOF MS survey scan to detect precursor ions, followed by MS/MS scans of the top 10 most intense ions (intensity > 200 counts/s). TOF MS was set to scan m/z 200–700 with a 0.1 s accumulation time, while TOF MS/MS scanned m/z 50–700 with a 0.04 s accumulation time. The source temperature and spray voltage were set at 500 °C, and 5000 v, respectively. Curtain gas and collision gas (CAD) were set at 30 and 9 psi, while nebulizer gas (gas 1) and heater gas (gas 2) were set at 55 and 60 psi, respectively. The declustering potential (DP) was 50 V. Collision energy (CE) were 10 v for TOF MS and 35 v (±15 v spread) for TOF MS/MS. Data were acquired using SCIEX OS software 1.6.1, and processed on SCIEX OS software 3.1.0.
To elucidate the metabolic pathways and identify unknown metabolites of R14, we employed a multi-step strategy. First, MS/MS fragmentation analysis was performed to characterize the fragmentation pattern of R14 and identify its key fragment ions, which served as references for metabolite identification. Next, based on the chemical structure of R14, potential biotransformation pathways mediated by hepatic cytochrome P450 enzymes were predicted. These predicted metabolites were then screened in urine samples collected during in vivo pharmacokinetic studies to identify excreted metabolites. Metabolites detected in urine were subsequently cross-verified in plasma samples from the same in vivo studies. If verification failed or additional metabolites were suspected, the analysis reverted to the initial fragmentation step to identify downstream or daughter metabolites. […]

[2] = R14 incubation in rat whole blood; format: in vitro ADME; details: R14 10 µg/mL, room temperature, 3 days
Protocol: Previously, we observed the complete disappearance of R14 from mouse whole blood samples after being stored for 10 days in a −70 °C freezer, raising concerns about its stability under typical storage conditions. To further investigate the degradation and potential metabolic transformation of R14 in whole blood, we spiked rat whole blood with R14 (10 µg/mL) and left it at room temperature for 3 days. Room temperature incubation allows for ongoing enzymatic and non-enzymatic processes, providing insight into R14’s metabolic stability and degradation pathways under physiologically relevant but uncontrolled conditions. After incubation, a 4X volume of methanol containing 0.5% formic acid was added to the samples, followed by vortexing for 3 min and centrifugation to obtain supernatant prior to metabolite identification using the UHPLC coupled with quadrupole time-of-flight tandem mass spectrometry (UHPLC-QTOF MS/MS).
as §2, with “analysis. […]” for “analysis.”

[3] = Pharmacokinetics of R14 in rats after i.v. and oral dose; format: in vivo, Sprague Dawley rats; details: for AUC(0-t): read-out: AUC0→10h
Protocol: This study was carried out in accordance with the recommendation of the Guidelines for the Care and Use of Laboratory Animals (2011) and was in compliance with the ARRIVE guidelines. All animal experiments were conducted with prior approval from the Texas Southern University Institutional Animal Care and Use Committee (IACUC). Male adult SD rats (250–350 g) were purchased from Envigo RMS (Indianapolis, IN, USA) and were housed in standard rodent cages (3–4 rats per cage) with a 12 h light/dark cycle at 22–24 °C and had free access to standard laboratory rodent chow (7012 Teklad mouse/rat diet from Envego, Inc., Indianapolis, IN, USA) and water. Rats were acclimated to the animal care facility for at least 7 days before the start of each experiment. Only male rats were used in the present study to minimize pharmacokinetic variations due to sex differences.
To facilitate the timed withdrawal of multiple blood samples from each animal, the right jugular vein of each animal was cannulated one day prior to drug administration. The cannulas were flushed daily with 0.5 mL of sterile heparinized saline (100 units/mL). Under anesthesia using a cocktail of ketamine/acetopromazine/xylazine (50:3.3:3.3 mg/kg ip), silicone elastomer tubing (0.02 × 0.037 in) was inserted into the jugular vein, secured with a silk suture, and exteriorized in the dorsal intrascapular area. The surgical incision was prophylactically treated with nitrofurazone wound powder and closed with surgical staples.
as §1
For the intravenous (i.v.) pharmacokinetics of R14, another group of jugular vein cannulated rats received an i.v. administered 5 mg/kg R14 dose. Serial blood samples (0.15 mL each) were collected from the cannulated jugular vein into heparin-coating tubes before dosing and at 2 min, 5 min, 10 min, 30 min, 45 min, 1 h, 2 h, 4 h, 6 h, 8 h, 10 h, and 24 h time points post-dose. Plasma was processed similarly, with aliquots prepared for both R14 quantification and metabolite analysis, and urine collected over 24 h and stored at −80 °C.
The urine sample (10 μL each) was pre-mixed with 30 µL of derivatization agent (also acting as stabilizing agent). Pre-mixed plasma samples (with the derivation agent before storage) or the pre-mixed urine samples were added to 360 µL of acetonitrile (containing 2.5 ng/mL warfarin), vortexed for 2 min, and then centrifuged for 20 min. The supernatant (80 μL) was mixed with 160 µL of acetonitrile containing 0.5% formic acid, and finally, 100 μL aliquot of the mixture was transferred to a sample vial for UHPLC-MS/MS analysis.
R14 quantification via monitoring R14 bisulfite was conducted using a previously published method on a 6500+ Triple Quad UHPLC-MS/MS System (SCIEX, Framingham, MA, USA) coupled with a Synergi Fusion-RP column (50 × 2 mm, 4 µm, 80 Å, Phenomenex Inc., Torrance, CA, USA). […]

[4] = R14 permeability in the Caco-2 cell culture model; format: in vitro ADME; details: human, Caco-2, R14 10 µM
Protocol: (§3) The permeability of R14 was assessed using the Caco-2 cell monolayer model, following the protocol by Liu and Hu (Liu 2002). Caco-2 cells (2.5 × 10^5 cells per insert; 4.2 cm^2 area, 3 μm pore size) were seeded and cultured at 37 °C with 90% humidity and 5% CO2 for 19–22 days. Monolayer integrity was evaluated using transepithelial electrical resistance (TEER) measurements with a Millicell ERS-2 system. Only monolayers with TEER values between 500 and 750 Ω·cm^2 were used.
(§4) Hank’s Balanced Salt Solution (HBSS), supplemented with NaHCO3 (0.35 g/L), HEPES (5.96 g/L), and glucose (3.5 g/L), adjusted to the desired pH, was used as the transport medium. Cells from passages 41–49 were used.
(§5) After confirming TEER, R14 working solution (10 µM) was added to either the apical or basolateral side of the insert, designating that side as the donor compartment, while the opposite side served as the receiver compartment. Samples (200 µL) were collected from both the apical (A) and basolateral (B) sides at 0, 0.5, 1, 2, and 4 h. The removed volume was immediately replaced with either fresh R14 working solution (on the donor side) or fresh buffer (on the receiver side) to maintain consistent volume and drug concentration throughout the experiment.
(§6) For analysis, 100 µL of acetonitrile containing 0.6% formic acid and internal standard was added to each collected sample. After vortexing and centrifugation, the supernatant was analyzed using UHPLC-MS/MS for R14 quantification.
(§7) The apparent permeability coefficient (P, cm/s) was calculated using the following equation: P=dQ/dt/A·C0 where dQ/dt is the permeability rate of drug appearance in the receiver compartment (µmol/s), A is the surface area of the cell monolayer (cm^2), and C0 is the initial concentration in the donor compartment (µmol/mL).
(§8) Permeability was assessed in both directions (apical to basolateral and basolateral to apical), and the efflux ratio was calculated as: Effluxratio=Pb−a/Pa−b where Pa−b is the permeability coefficient from apical to basolateral, and Pb−a is the permeability coefficient from basolateral to apical.

[5] = test system: Caco-2 cell monolayer; experiment: R14 permeability in the Caco-2 cell culture model; format: in vitro ADME; details: R14 10 µM
Protocol: as §3, §4, §5, §6, §7, §8

[6] = cited from earlier work
[7] = design: method as in PMID 36924633; details: mouse whole blood stored at −70 °C; cited from earlier work
[8] = test system: MDA-MB-231 tumor; design: method as in PMID 42013846; details: oral R14 vs vehicle controls; cited from earlier work
[9] = male, Sprague Dawley, iv, i.v. 5 mg/kg, rat plasma, n = 3, mean ± SD
[10] = male, Sprague Dawley, rat, plasma, iv, i.v. 5 mg/kg, rats, n = 3, mean ± SD
[11] = male, Sprague Dawley, rat, plasma, oral 50 mg/kg, rats, n = 3, mean ± SD
[12] = male, Sprague Dawley, oral 50 mg/kg, rat plasma, n = 3, mean ± SD

Source B (detected in whole blood incubation) [2]: sole major metabolic product and √
SMILES: Cc1ccccc1N1Sc2cc(F)ccc2C1O (stereo not drawn) [Metabolite M1]
Source P (detected in plasma) ([1]; 50 mg/kg): low concentrations and relatively low levels and √
Source U (detected in urine) [1]: undetectable

SMILES: Cc1ccccc1-n1sc2cc(F)ccc2c1=O [Metabolite R14, 6-Fluoro-2-(2-methylphenyl)-1,2-benzothiazol-3(2H)-one]
AUC(0-inf) [3, 9]: 1.81 ± 0.444 µg·h/mL
AUC(0-t) [3, 9]: 1.58 ± 0.477 µg·h/mL
MRT [3, 10]: 1.63 ± 0.39 h
half-life [3, 10]: 5.39 ± 0.94 h
clearance ([3]; male, Sprague Dawley, rat, plasma, iv, i.v. 5 mg/kg, rats, n = 3, mean ± SD, read-out: CL (systemic clearance) (converted)): 2.63 L/h/kg
Vd ([3]; male, Sprague Dawley, rat, plasma, iv, i.v. 5 mg/kg, rats, n = 3, mean ± SD, read-out: Vd (volume of distribution)): 20.7 ± 6.11 L/kg
bioavailability ([3]; male, Sprague Dawley, rat, plasma, oral, 50 mg/kg, oral 50 mg/kg vs i.v. 5 mg/kg, rats, read-out: F% (absolute oral bioavailability)): 13.4%
MRT [3, 11]: 2.82 ± 0.5 h
half-life [3, 11]: 2.99 ± 1.41 h
CL/F ([3]; male, Sprague Dawley, rat, plasma, oral 50 mg/kg, rats, n = 3, mean ± SD, read-out: CL/F (apparent clearance) (converted)): 22 L/h/kg
Vd/F ([3]; male, Sprague Dawley, rat, plasma, oral 50 mg/kg, rats, n = 3, mean ± SD, read-out: Vd/F (apparent volume of distribution)): 93.3 ± 38.1 L/kg
Tmax ([3]; male, Sprague Dawley, oral 50 mg/kg, rat plasma, n = 3): 0.5 h
AUC(0-inf) [3, 12]: 2.43 ± 0.344 µg·h/mL
Cmax [3, 12]: 1.15 ± 0.201 µg/mL
AUC(0-t) [3, 12]: 2.08 ± 0.255 µg·h/mL
F% (absolute oral bioavailability) ([3]; oral 50 mg/kg vs i.v. 5 mg/kg, rats): 13.38%
Cumulative excretion in 24 h urine as fraction of total amount of R14 and its metabolites [1]: Less than 1%
Papp A→B at 4 h, 10 µM ([4]; n = 3, read-out: Pa−b (apical-to-basolateral permeability)): 63.9 ± 6 nm/s
Papp B→A at 4 h, 10 µM ([4]; n = 3, read-out: Pb−a (basolateral-to-apical permeability)): 64.1 ± 11.5 nm/s
efflux ratio at 4 h, 10 µM ([4]; read-out: Efflux ratio (Pb−a/Pa−b)): 1.12
Permeability assessment [5]: moderate permeability
Solubility in DMSO ([6]; DMSO): 25 mg/mL (≈ 96.4 mM)
Water solubility ([6]; water): poorly water soluble
Time to complete disappearance from whole blood samples [7]: ≤ 10 days
Survival [8]: improved survival
Tumor size [8]: significantly reduced

SMILES: Cc1ccccc1N1Sc2cc(F)ccc2C1OC1OC(C(=O)O)C(O)C(O)C1O (stereo not drawn) [Metabolite M4]
Source P (detected in plasma) [1]: √
Apparent AUC in plasma relative to total AUC of R14 and all identified metabolites ([1]; rat plasma, peak area as relative concentration): 22.3%
Cumulative excretion in 24 h urine as fraction of total amount of R14 and its metabolites [1]: 48.4%
Source U (detected in urine) [1]: √
